Experimental data from patent US8207185B2, “CaMKKβ as a target for treating obesity” (Duke University, priority 2006, dated 2012).

Key:
[1] = test system: feeding behavior of living mice; assay: Third-ventricle infusion of STO-609 in living mice: food intake, water intake and body weight over 7 days; format: in vivo; conditions: 20 uM STO-609, 0.5 ul/hr for 7 days
Procedure: (§1) To test the effect of STO-609 on feeding behavior, we stereotaxically implanted cannula into the third ventricle of living mice and attached the cannula to osmotic min-pumps that distribute fluids at a rate of 0.5 ul/hr for 7 days. Half of the pumps contained 20 uM STO-609 whereas the other half contained the NaOH vehicle. We monitored body weight together with food and water intake daily for 7 days. Then the mice were sacrificed, hypothalami were removed, RNA extracted and the mRNAs encoding NPY and AgRP were quantified by RT-PCR. […] In addition, STO-609 decreased the total amount of food consumed over the 7 day period by 60% (FIG. 2, left panel) but had no effect on water consumption. In addition, whereas the WT mice gained body weight during the 7 day period (about 4% relative to the starting weight) the STO-609 treated mice lost weight (about 7% relative to the starting weight) (FIG. 2, right panel).

[2] = test system: NPY and AgRP mRNA; assay: Third-ventricle infusion of STO-609 in living mice: hypothalamic NPY and AgRP mRNA quantified by RT-PCR; format: in vivo; conditions: 20 uM STO-609 by osmotic mini-pump, 0.5 ul/hr for 7 days, into third ventricle; versus NaOH vehicle; FIG. 1
Procedure: as §1

How did the “effect on water consumption” value [1] turn out when `O=C(O)c1ccc2c3c1cccc3c(=O)n1c3ccccc3nc21` [STO-609] was run?
The value was “no effect”.

And the “body weight lost relative to the starting weight” value ([1]; 7 day period, FIG. 2, right panel)?
The value was “about 7%”.

What about the “decrease of total amount of food consumed over the 7 day period” value ([1]; FIG. 2, left panel) of the same molecule?
Its value is 60%.

What about the “AgRP mRNA in hypothalamic RNA” value [2] of the same molecule?
The value was “highly statistically significant decreases”.

And the “NPY mRNA in hypothalamic RNA” value [2]?
Its value is “highly statistically significant decreases”.
